Test results from patent US9365830B2, “Agents and methods for inhibiting human pluripotent stem cell growth” (VIACYTE, INC., priority 2010, dated 2016).
Like-named read-outs stand apart in the source and are kept apart here.

Assays:
NPCs = test: Secondary screen, lowest effective dose on NPCs; assay type: cell-based, human; conditions: lowest concentration that elicited cytotoxicity, range 0.1 to 50 μM, read-out: ED NPC (lowest effective dose)
Method: In addition, the complete LOPAC1280™ collection was also screened for effects on neural progenitor cells (NPCs) that were derived from the hESCs. Neural progenitors were plated in serum-free MedII conditioned medium at 6×10^4 cells/well and fed daily. Two days after plating, 10 μM of each compound was added and the cells were cultured for an additional 2 days. […] Reduced crystal violet staining was indicative of lower proportions of NPCs. See circled wells in FIG. 7B. The left and right columns of the LOPAC1280™ plates from which the compounds were dispensed were empty and served as untreated controls. […] See Table 6 below listing the name and class of activity of each candidate compound identified in this screen (except chelerythrine chloride, which is listed in Table 5). ChCl was not included in the subsequent round of screening. Therefore only 40 compounds were tested further.
Using a range of different concentrations from 0.1 to 50 μM, the forty compounds in Table 6 were re-screened (secondary screen) using hESCS and NPCs. The effective dose (ED) was defined as the lowest concentration of a compound that elicited cytotoxicity during the secondary screen. […] The darker wells were indicative of the increased numbers or percentages of proliferating or growing pluripotent stem cells in the wells. In addition, these 40 compounds were screened on differentiating definitive endoderm (DE) cell cultures in 96-well plate impedance assays (described above) to determine which of these compounds were not cytotoxic to definitive endoderm cells at the lowest effective dose on either hESC or NPC. […] See “ACEA DE” column in Table 6.

hESCs (BG02) = test: Real-time impedance assay (RT-CES) for inhibitory and cytotoxic agents on hESCs; conditions: 10 μM compound added after about 24 hours, cultured about 5 more days; compared to DMSO control
From the text: The foregoing 176 selected compounds from the complete LOPAC1280™ library were then used to screen human pluripotent stem cells, e.g., hESCs, and differentiating cultures during Stage 1 (definitive endoderm) using a real-time impedance assay (ACEA biosciences RT-CES system). The RT-CES system uses 96-well trays that contain embedded microsensors to monitor changes in electrical impedance, which is translated into a measure of cell index. Any overt alteration within a cell culture can be detected, including but not limited to cell proliferation, migration, cell spreading, apoptosis, differentiation and the like. […] An increase in the cell index indicates proliferation of the cells, for example, proliferation of the undifferentiated cells. […] See also FIG. 1. […] A “scallop” cell index is one which remains high due to a confluent culture of cells, but will go down and up (scallop) between daily feedings. Conversely, cells undergoing differentiation have distinctive patterns, such as peaks and troughs in the cell index, potentially indicative of an epithelial-to-mesenchymal transition, flattening, cell migration, apoptosis or similar differentiation and growth related changes.
Impedance Assay for Inhibitory and Cytotoxic Agents. Human pluripotent stem cells, e.g., 2×10^4 hESCs (BG02), were cultured in DC-HAIF, a heregulin-based defined media, with daily feeding in the impedance monitoring plates. After about 24 hours, and 10 μM of the selected LOPAC1280™ compound was added to each well (see arrowhead in FIGS. 3 A & B) and cultured for about an additional 5 days.

[1] = tested on: adherent Stage 1 cell cultures of BG02; test: Q-PCR marker gene expression, adherent Stage 1 cultures of BG02; assay type: cell-based, human; conditions: for SOX17 gene expression: end of Stage 1, compared to DMSO control (FIG. 4D); for OCT4 and NANOG gene expression: end of Stage 1, compared to DMSO control (FIGS. 4A, 4B); for FOXA2 (HNF3β) expression: end of Stage 1, compared to DMSO control (FIG. 4C)
From the text: FIGS. 4A-4G are bar graphs showing the relative gene expression levels of OCT4 (FIG. 4A), NANOG (FIG. 4B), FOXA2 (FIG. 4C), SOX17 (FIG. 4D), SOX7 (FIG. 4E), PAX6 (FIG. 4F) and ZIC1 (FIG. 4G) BG02 with treatment of candidate selective cytotoxic agents from the LOPAC1280™ sublibrary (Table 4) to adherent Stage 1 cell cultures of BG02. Expression levels were normalized using the geometric mean of three housekeeping genes, GUSB, CYCG and TBP. The graphs depict fold regulation compared to the hESC sample. The large arrow heads indicate time of the drug treatment. D=DMSO (control); C=Chelerythrine Chloride; A=AG490; B=BTO-1; De=Dephostatin; S=SU6656.
Screen for Effects on Stages 1-5 Differentiation. To further determine whether these 5 candidate compounds added at Stage 1 affected other differentiated cell types (e.g. Stages 2-5: foregut endoderm, posterior foregut endoderm, pancreatic endoderm and endocrine precursor cells, respectively), hES were differentiated in the presence or absence of compounds, and RNA samples were taken at various stages for gene expression analysis by Q-PCR.
Gene expression levels were plotted relative to a DMSO treated control at the end of Stage 1 (FIG. 4), and relative to undifferentiated hESC aggregates (FIGS. 5 and 6). See “Control” in FIGS. 4, 5 & 6. […] Chelerythrine chloride, Dephostatin, SU 6656 and Tyrphostin AG 490 compounds each caused an increase in SOX17 gene expression as compared to the DMSO control, consistent with the gene expression profile for Stage 1 definitive endoderm cell cultures (FIG. 4D). However, Tyrphostin AG 490 (AG) and SU 6656 (SU) each caused a decrease in FOXA2 (HNF3β) expression as compared to the DMSO control, indicating adverse effects of these two compounds on definitive endoderm (FIG. 4C). Yet none of the compounds appeared to substantially impact expression of non-definitive endoderm markers including SOX7, PAX6 or ZIC1 (FIGS. 4 E, 4F & 4G), and were not, therefore, excluded on the basis of inducing differentiation to other cell types. […] This compound neither decreased OCT4 or NANOG expression, nor increased FOXA2 (HNF3β) or SOX17 expression, as would have been expected of a pluripotent stem cell-selective inhibitor/cytotoxic agent.

Row | Compound | minimal effective concentration (NPCs) | cell index (impedance); inhibitory or cytotoxic effect on the hESCs (hESCs (BG02)) | SOX17 gene expression [1] | OCT4 and NANOG gene expression [1] | FOXA2 (HNF3β) expression [1] | minimal effective concentration (NPCs; Homo sapiens, 48 h)
1 | 22, 23-dihydroavermectin B1a+22,23-dihydroavermectin B1b [Ivermectin] | >50 µM |  |  |  |  | 
2 | CN(N=O)c1cc(O)ccc1O [Dephostatin] |  | significant decrease | increase | subtle relative decrease |  | 
3 | CN(C)S(=O)(=O)c1ccc2c(c1)/C(=C/c1cc3c([nH]1)CCCC3)C(=O)N2 [SU 6656] |  |  | increase | subtle relative decrease | decrease | > 50 µM
4 | N#C/C(=C\c1ccc(O)c(O)c1)C(=O)NCc1ccccc1 [Tyrphostin AG 490] | 10 µM | significant decrease | increase | subtle relative decrease | decrease | 
